Calls of active or inactive are those of the source. No cut-off for these calls is given here.
System: T47D
Assay: Induction of apoptosis in human T47D cells assessed as caspase activation after 24 hrs
Type: functional, cell-based
Details: not given

SMILES	EC50
N#Cc1cc(C(=O)c2ccc(Cl)cc2)n2c1ccc1ccccc12	49 nM
N#Cc1cc(C(O)c2ccc(-n3cccn3)cc2)n2c1ccc1ccccc12 (stereo not drawn)	160 nM
N#Cc1cc(C(=O)c2ccc(N)cc2)n2c1ccc1ccccc12	170 nM
N#Cc1cc(C(=O)c2ccc(N3CCNCC3)cc2)n2c1ccc1ccccc12	> 10000 nM
COc1ccc(C(=O)c2cc(C#N)c3ccc4ccccc4n23)cc1	280 nM
N#Cc1cc(C(O)c2ccc(N3CCCC3)cc2)n2c1ccc1ccccc12 (stereo not drawn)	210 nM
CCN(CC)c1ccc(C(=O)c2cc(C#N)c3ccc4ccccc4n23)cc1	100 nM
N#Cc1cc(C(=O)c2ccc(-n3cccn3)cc2)n2c1ccc1ccccc12	41 nM
N#Cc1cc(C(=O)c2ccc(-n3ccnc3)cc2)n2c1ccc1ccccc12	34 nM
CC(=O)c1cc(C(=O)c2ccc(C)cc2)n2c1ccc1ccccc12	> 10000 nM
N#Cc1cc(C(=O)c2ccc(N3CCCC3)cc2)n2c1ccc1ccccc12	300 nM
Cc1ccc(C(=O)c2cc(C#N)c3ccc4ccccc4n23)cc1	930 nM
COc1cccc(C(=O)c2cc(C#N)c3ccc4ccccc4n23)c1	170 nM
N#Cc1cc(C(=O)c2cccnc2)n2c1ccc1ccccc12	690 nM
CCOC(=O)c1cc(C(=O)c2cccc(OC)c2)n2c1ccc1ccccc12	> 10000 nM
N#Cc1cc(C(=O)c2ccccn2)n2c1ccc1ccccc12	40 nM
Cc1ccccc1C(=O)c1cc(C#N)c2ccc3ccccc3n12	140 nM
N#Cc1cc(C(=O)c2ccc(F)cc2)n2c1ccc1ccccc12	36 nM
N#Cc1cc(C(=O)c2ccc([N+](=O)[O-])cc2)n2c1ccc1ccccc12	2800 nM
COc1ccc(C(O)c2cc(C#N)c3ccc4ccccc4n23)cc1 (stereo not drawn)	220 nM
N#Cc1cc(C(=O)c2ccccc2)n2c1ccc1ccccc12	78 nM

System: HCT-116
Assay: Induction of apoptosis in human HCT116 cells assessed as caspase activation after 24 hrs
Type: functional, cell-based
Details: HCT-116, 24 h

SMILES	EC50
N#Cc1cc(C(=O)c2ccc(Cl)cc2)n2c1ccc1ccccc12	> 10000 nM
N#Cc1cc(C(O)c2ccc(-n3cccn3)cc2)n2c1ccc1ccccc12 (stereo not drawn)	550 nM
N#Cc1cc(C(=O)c2ccc(N)cc2)n2c1ccc1ccccc12	240 nM
N#Cc1cc(C(=O)c2ccc(N3CCNCC3)cc2)n2c1ccc1ccccc12	> 10000 nM
COc1ccc(C(=O)c2cc(C#N)c3ccc4ccccc4n23)cc1	280 nM
N#Cc1cc(C(O)c2ccc(N3CCCC3)cc2)n2c1ccc1ccccc12 (stereo not drawn)	320 nM
CCN(CC)c1ccc(C(=O)c2cc(C#N)c3ccc4ccccc4n23)cc1	370 nM
N#Cc1cc(C(=O)c2ccc(-n3cccn3)cc2)n2c1ccc1ccccc12	96 nM
N#Cc1cc(C(=O)c2ccc(-n3ccnc3)cc2)n2c1ccc1ccccc12	74 nM
CC(=O)c1cc(C(=O)c2ccc(C)cc2)n2c1ccc1ccccc12	> 10000 nM
N#Cc1cc(C(=O)c2ccc(N3CCCC3)cc2)n2c1ccc1ccccc12	580 nM
Cc1ccc(C(=O)c2cc(C#N)c3ccc4ccccc4n23)cc1	4200 nM
COc1cccc(C(=O)c2cc(C#N)c3ccc4ccccc4n23)c1	1700 nM
N#Cc1cc(C(=O)c2cccnc2)n2c1ccc1ccccc12	3700 nM
CCOC(=O)c1cc(C(=O)c2cccc(OC)c2)n2c1ccc1ccccc12	> 10000 nM
N#Cc1cc(C(=O)c2ccccn2)n2c1ccc1ccccc12	1900 nM
Cc1ccccc1C(=O)c1cc(C#N)c2ccc3ccccc3n12	2500 nM
N#Cc1cc(C(=O)c2ccc(F)cc2)n2c1ccc1ccccc12	1200 nM
N#Cc1cc(C(=O)c2ccc([N+](=O)[O-])cc2)n2c1ccc1ccccc12	> 10000 nM
COc1ccc(C(O)c2cc(C#N)c3ccc4ccccc4n23)cc1 (stereo not drawn)	240 nM
N#Cc1cc(C(=O)c2ccccc2)n2c1ccc1ccccc12	5500 nM

System: SNU-398
Assay: Induction of apoptosis in human SNU398 cells assessed as caspase activation after 24 hrs
Type: functional, cell-based
Details: SNU-398, 24 h

SMILES	EC50
N#Cc1cc(C(=O)c2ccc(Cl)cc2)n2c1ccc1ccccc12	> 10000 nM
N#Cc1cc(C(O)c2ccc(-n3cccn3)cc2)n2c1ccc1ccccc12 (stereo not drawn)	350 nM
N#Cc1cc(C(=O)c2ccc(N)cc2)n2c1ccc1ccccc12	200 nM
N#Cc1cc(C(=O)c2ccc(N3CCNCC3)cc2)n2c1ccc1ccccc12	> 10000 nM
COc1ccc(C(=O)c2cc(C#N)c3ccc4ccccc4n23)cc1	180 nM
N#Cc1cc(C(O)c2ccc(N3CCCC3)cc2)n2c1ccc1ccccc12 (stereo not drawn)	300 nM
CCN(CC)c1ccc(C(=O)c2cc(C#N)c3ccc4ccccc4n23)cc1	260 nM
N#Cc1cc(C(=O)c2ccc(-n3cccn3)cc2)n2c1ccc1ccccc12	57 nM
N#Cc1cc(C(=O)c2ccc(-n3ccnc3)cc2)n2c1ccc1ccccc12	39 nM
CC(=O)c1cc(C(=O)c2ccc(C)cc2)n2c1ccc1ccccc12	> 10000 nM
N#Cc1cc(C(=O)c2ccc(N3CCCC3)cc2)n2c1ccc1ccccc12	510 nM
Cc1ccc(C(=O)c2cc(C#N)c3ccc4ccccc4n23)cc1	2700 nM
COc1cccc(C(=O)c2cc(C#N)c3ccc4ccccc4n23)c1	1600 nM
N#Cc1cc(C(=O)c2cccnc2)n2c1ccc1ccccc12	2600 nM
CCOC(=O)c1cc(C(=O)c2cccc(OC)c2)n2c1ccc1ccccc12	> 10000 nM
N#Cc1cc(C(=O)c2ccccn2)n2c1ccc1ccccc12	1600 nM
Cc1ccccc1C(=O)c1cc(C#N)c2ccc3ccccc3n12	2700 nM
N#Cc1cc(C(=O)c2ccc(F)cc2)n2c1ccc1ccccc12	880 nM
N#Cc1cc(C(=O)c2ccc([N+](=O)[O-])cc2)n2c1ccc1ccccc12	> 10000 nM
COc1ccc(C(O)c2cc(C#N)c3ccc4ccccc4n23)cc1 (stereo not drawn)	140 nM
N#Cc1cc(C(=O)c2ccccc2)n2c1ccc1ccccc12	5200 nM

System: SK-BR-3
Assay: Growth inhibition of human SKBR3 cells
Type: functional
Details: not given

SMILES	GI50
N#Cc1cc(C(=O)c2ccccc2)n2c1ccc1ccccc12	70 nM

System: ZR-75-1
Assay: Growth inhibition of human ZR-75-1 cells
Type: functional
Details: not given

SMILES	GI50
N#Cc1cc(C(=O)c2ccccc2)n2c1ccc1ccccc12	70 nM

System: BT-474
Assay: Growth inhibition of human BT474 cells
Type: functional
Details: not given

SMILES	GI50
N#Cc1cc(C(=O)c2ccccc2)n2c1ccc1ccccc12	70 nM

System: DLD-1
Assay: Growth inhibition of human DLD1 cells
Type: functional
Details: not given

SMILES	GI50
N#Cc1cc(C(=O)c2ccccc2)n2c1ccc1ccccc12	1200 nM

System: HT-29
Assay: Growth inhibition of human HT-29 cells
Type: functional
Details: not given

SMILES	GI50
N#Cc1cc(C(=O)c2ccccc2)n2c1ccc1ccccc12	1200 nM

System: not listed separately
Assay: Growth inhibition of human H1299 cells
Type: functional
Details: NCI-H1299

SMILES	GI50
N#Cc1cc(C(=O)c2ccccc2)n2c1ccc1ccccc12	1200 nM

System: K562
Assay: Growth inhibition of human K562 cells
Type: functional
Details: not given

SMILES	GI50
N#Cc1cc(C(=O)c2ccccc2)n2c1ccc1ccccc12	1200 nM

System: not listed separately
Assay: Growth inhibition of human NAMALWA cells
Type: functional
Details: NAMALVA

SMILES	GI50
N#Cc1cc(C(=O)c2ccccc2)n2c1ccc1ccccc12	1200 nM

System: Raji
Assay: Growth inhibition of human Raji cells
Type: functional
Details: not given

SMILES	GI50
N#Cc1cc(C(=O)c2ccccc2)n2c1ccc1ccccc12	1200 nM

System: T47D
Assay: Growth inhibition of human T47D cells
Type: functional
Details: not given

SMILES	GI50
N#Cc1cc(C(=O)c2ccc(N)cc2)n2c1ccc1ccccc12	470 nM
COc1ccc(C(=O)c2cc(C#N)c3ccc4ccccc4n23)cc1	71 nM
N#Cc1cc(C(=O)c2ccc(-n3cccn3)cc2)n2c1ccc1ccccc12	72 nM
N#Cc1cc(C(=O)c2ccc(-n3ccnc3)cc2)n2c1ccc1ccccc12	41 nM
N#Cc1cc(C(=O)c2ccc(N3CCCC3)cc2)n2c1ccc1ccccc12	75 nM
Cc1ccccc1C(=O)c1cc(C#N)c2ccc3ccccc3n12	87 nM
N#Cc1cc(C(=O)c2ccccc2)n2c1ccc1ccccc12	70 nM

System: HCT-116
Assay: Growth inhibition of human HCT116 cells
Type: functional
Details: not given

SMILES	GI50
N#Cc1cc(C(=O)c2ccc(N)cc2)n2c1ccc1ccccc12	1200 nM
COc1ccc(C(=O)c2cc(C#N)c3ccc4ccccc4n23)cc1	490 nM
N#Cc1cc(C(=O)c2ccc(-n3cccn3)cc2)n2c1ccc1ccccc12	240 nM
N#Cc1cc(C(=O)c2ccc(-n3ccnc3)cc2)n2c1ccc1ccccc12	65 nM
N#Cc1cc(C(=O)c2ccc(N3CCCC3)cc2)n2c1ccc1ccccc12	250 nM
Cc1ccccc1C(=O)c1cc(C#N)c2ccc3ccccc3n12	1600 nM
N#Cc1cc(C(=O)c2ccccc2)n2c1ccc1ccccc12	5800 nM

System: SNU-398
Assay: Growth inhibition of human SNU398 cells
Type: functional
Details: not given

SMILES	GI50
N#Cc1cc(C(=O)c2ccc(N)cc2)n2c1ccc1ccccc12	420 nM
COc1ccc(C(=O)c2cc(C#N)c3ccc4ccccc4n23)cc1	120 nM
N#Cc1cc(C(=O)c2ccc(-n3cccn3)cc2)n2c1ccc1ccccc12	36 nM
N#Cc1cc(C(=O)c2ccc(-n3ccnc3)cc2)n2c1ccc1ccccc12	59 nM
N#Cc1cc(C(=O)c2ccc(N3CCCC3)cc2)n2c1ccc1ccccc12	140 nM
Cc1ccccc1C(=O)c1cc(C#N)c2ccc3ccccc3n12	730 nM
N#Cc1cc(C(=O)c2ccccc2)n2c1ccc1ccccc12	2000 nM

System: HCT-116
Assay: Cell cycle arrest in human HCT116 cells by accumulation at G2/M phase by flow cytometry
Type: functional, cell-based
Details: not given

SMILES	Activity
N#Cc1cc(C(=O)c2ccc(-n3ccnc3)cc2)n2c1ccc1ccccc12	Active
N#Cc1cc(C(=O)c2ccccc2)n2c1ccc1ccccc12	Active

System: not listed separately
Assay: Inhibition of tubulin polymerization
Details: not given

SMILES	IC50
N#Cc1cc(C(=O)c2ccc(-n3cccn3)cc2)n2c1ccc1ccccc12	1000 nM
N#Cc1cc(C(=O)c2ccc(-n3ccnc3)cc2)n2c1ccc1ccccc12	5000 nM

System: not listed separately
Assay: Inhibition of tubulin polymerization up to 50 uM
Details: not given

SMILES	Activity
N#Cc1cc(C(=O)c2ccccc2)n2c1ccc1ccccc12	inactive

From ChEMBL document CHEMBL1152165, “Discovery of 1-benzoyl-3-cyanopyrrolo[1,2-a]quinolines as a new series of apoptosis inducers using a cell- and caspase-based high-throughput screening assay. Part 1: Structure-activity relationships of the 1- and 3-positions” (Bioorg Med Chem Lett, 2008)
